Source: publication PMC9408991, “Antitumor Effects of a New Retinoate of the Fungal Cytotoxin Illudin M in Brain Tumor Models” (International Journal of Molecular Sciences, 2022)
Read-outs that look alike come from different tables or passages of the source.

Assays:
[1] = test system: brain-derived cells (NE-4C, neurons, astrocytes, C6, U87, U251, MZ-54); experiment: MTT assay, summary over brain-derived cells; type: cell-based; conditions: 48 h, read-out: IC50 (48 h) values, range over brain-derived cells
Method: (§1) Non-GBM cells (5 × 10^4 cells/mL, 100 µL/well) were grown in 96-well plates for 24 h. Then, they were treated with various concentrations of the test compounds or vehicle (DMSO, or EtOH) for 72 h at 37 °C. After the addition of 12.5 µL of a 0.5% MTT solution in PBS, the cells were incubated for 3 h at 37 °C so that the water-soluble MTT could be converted to formazan crystals. Then, the plates were centrifuged (300× g, 5 min, 4 °C), the medium withdrawn, and the formazan dissolved in 25 µL of DMSO containing 10% sodium dodecylsulfate (SDS) and 0.6% acetic acid for at least 2 h at 37 °C. In the case of the HL60 cells, after 2 h, the precipitate of formazan crystals was redissolved in a 10% solution of SDS in DMSO containing 0.6% acetic acid.
Adherently grown GBM cells were seeded at 5 × 10^4 cells/mL and floating spheres at 8 × 10^4 cells/mL in 100 µL/well and incubated as above for 48 or 72 h at 37 °C. Afterward, 10 µL of a 5 mg/mL MTT solution in PBS was added to the cells for 3 h at 37 °C. Then, the spheres were centrifuged shortly to collect the cells on the bottom of the plate, and the medium was removed by careful pipetting for both adherently grown and floating sphere GBM cultures. […] The absorbance of formazan (λ = 570 nm), and background (λ = 630 nm) was measured with a microplate reader (Tecan Spark, Tecan Deutschland GmbH, Crailsheim, Germany).

[2] = test system: U87 glioma cells; experiment: MTT cell viability assay, U87 glioma; type: cell-based; conditions: Homo sapiens, U-87 MG, read-out: Inhibitory concentration IC50
Method: 518A2 (Department of Radiotherapy, Medical University of Vienna, Vienna, Austria) melanoma, KB-V1^Vbl (ACC-149) cervix carcinoma, MCF-7^Topo (ACC-115) breast carcinoma, HT29 (ACC-299) colon carcinoma were cultivated in Dulbecco’s Modified Eagle Medium (DMEM) supplemented with 10% fetal bovine serum and 1% antibiotic-antimycotic at 37 °C, 5% CO2, and 95% humidity. To keep MCF-7^Topo and KB-V1^Vbl cells resistant, the maximum-tolerated doses of topotecan or vinblastine were added to the cell culture medium 24 h after every passage. The human HL60 leukemia cells were obtained from the German National Resource Center for Biological Material (DSMZ), Braunschweig. Neuroectodermal stem cells NE-4C (ATCC No. CRL-2925), primary mouse astrocytes, rat glioma C6 (ATCC No. CCL-107) and human glioma U87 (ATCC No. HTB-14) were used.
[…] Afterward, 10 µL of a 5 mg/mL MTT solution in PBS was added to the cells for 3 h at 37 °C. Then, the spheres were centrifuged shortly to collect the cells on the bottom of the plate, and the medium was removed by careful pipetting for both adherently grown and floating sphere GBM cultures. Afterward, formazan was dissolved in a mixture (24:1 v:v) of isopropanol and 1 M HCl using 100 µL for adherent cells by shaking the plates for at least 20 min. The absorbance of formazan (λ = 570 nm), and background (λ = 630 nm) was measured with a microplate reader (Tecan Spark, Tecan Deutschland GmbH, Crailsheim, Germany).

[3] = test system: embryonal neuronal cells; experiment: Long-term development of embryonal neuronal cell cultures; type: cell-based, mouse; conditions: 1 µM, 3, 6 or 8 days
Method: NE-4C cells derived from the anterior brain vesicles of p53-deficient 9-day-old mouse embryos were maintained in Minimum Essential Medium (MEM; Sigma Aldrich, Taufkirchen, Germany) supplemented with 5% fetal calf serum (FCS; Invitrogen-Gibco, Carlsbad, CA, USA), 4 mM glutamine (Sigma-Aldrich, Taufkirchen, Germany) and 40 ug/mL gentamycin (Chinoin, Budapest, Hungary). For maintenance, subconfluent cultures were regularly split by trypsinization (0.05 w/v% trypsin in PBS) into poly-L-lysine-coated Petri dishes. Primary astrocytes were isolated from whole brains of neonatal (P0-P3) mice, as described earlier. In brief, meninges were removed, and the tissue pieces were subjected to enzymatic dissociation, using 0.05% w/v trypsin and 0.05% w/v DNase for 10 min at room temperature. The cells were plated onto poly-L-lysine coated plastic surfaces and grown in MEM supplemented with 10% fetal calf serum, 4 mM glutamine and 40 ug/mL gentamycin. Primary neuronal cultures were prepared from embryonic (E15–E16) mouse (CD1) forebrains, as described earlier. In brief, cell suspensions were prepared by mechanical dissociation over a nylon mesh with a pore diameter of 40–42 μm. The cells were seeded at 10^5 cells/cm^2 density onto PLL-coated surfaces. The cultures were maintained in MEM supplemented with 5% FCS, 4 mM glutamine, 40 µg/mL gentamicin and 2.5 μg/mL amphotericin B (Sigma). […]

[4] = test system: non-neural cancer cell lines; experiment: MTT assay, summary over non-neural cancer cell lines; type: cell-based, human; conditions: with the exception of MCF-7^+Topo
Method: as §1

[5] = test system: U87 glioma cells; experiment: Apoptosis of U87 glioma cells (calcein/Annexin V-Cy3); type: cell-based, human; conditions: between 1 and 10 µM, 48 h
Method: Astroglia cells grown on poly-L-lysine-coated glass cover slips were fixed with 4% paraformaldehyde in PBS for 20 min at room temperature and then permeabilized with Triton X-100 (0.1% v/v in PBS; 5 min). Nonspecific antibodies were blocked by incubation with 3% FBS in PBS (room temperature, 1 h). α-GFAP antibody (rabbit, DAKO) was used in a dilution of 1:2000 and was visualized by anti-rabbit IgG Alexa 594 (1:1000). DAPI (4′,6-diamidino-2-phenylindole) was used for nuclei staining. Fluorescence images were captured manually on a Zeiss Axiovert 200 M microscope fitted with 20- to 60-fold zoom and a Zeiss AxioCam MRm digital camera. Further applied antibodies were tubulin III (Sigma T5076), used at a dilution of 1:1000, and Annexin V. Cy3.18 (Sigma A4963).
Figure 6 U87 glioma cells undergo apoptosis upon 48 h treatment with 10 µM of 2. Cells in the early stages of apoptosis show calcein (green)/Annexin V-Cy3 (red) double labeling. Scale bars: 50 µm; 20 µm for inserts.

Row | SMILES | IC50 [1] | IC50 ([2]; U87, 24 h exposure) | IC50 ([2]; U87, 48 h exposure) | development of neuronal cells [3] | fold less efficacious than 1 [4] | apoptosis of U87 glioma cells [5]
1 | CC1=C2C(=CC(C)(C)[C@@H]2O)C(=O)[C@](C)(O)C12CC2 [Compound 1, illudin M] | 50 to 400 nM | 630 ± 40 nM | 130 ± 30 nM | – | – | –
2 | CC1=C(/C=C/C(C)=C/C=C/C(C)=C/C(=O)O[C@@H]2C3=C(C)C4(CC4)[C@@](C)(O)C(=O)C3=CC2(C)C)C(C)(C)CCC1 [Compound 2, illudin M retinoate] | – | 37000 ± 3000 nM | 2700 ± 700 nM | developed normally | 100 fold | undergoing rapid apoptosis
